How the values were obtained:
[1] = tested on: P. aeruginosa Δ3-Pore (GKCW116, FhuAΔC/Δ4L pore); test: MIC, two-fold broth dilution, P. aeruginosa Δ3-Pore; conditions: P. aeruginosa Δ3-Pore; 0.1 mM IPTG; LB, 37° C., 16 h
Description: (§1) Susceptibilities of E. coli and P. aeruginosa cells to different classes of antibiotics were determined by two-fold broth dilution method [1] with following modifications. Cells were grown in Luria-Bertani (LB) broth (tryptone 10 g/L, yeast extract 5 g/L and NaCl 5 g/L) with appropriate selection markers as needed, at 37° C. with shaking at 200 rpm. When needed, at OD600˜0.3, either L-arabinose (final concentration 0.1%) or IPTG (final concentration 0.1 mM) were added to induce the expression of the pore and cells were further incubated until OD600 reached 1.0. MICs of various antimicrobial agents were measured in 96-well micro-titer plates. For this purpose, exponentially growing cells were inoculated at a density of 10^5 cells/ml into wells containing LB medium in the presence of two-fold increasing concentrations of drugs under investigation at constant inducer concentration of 0.1% arabinose for E. coli or 0.1 mM IPTG for P. aeruginosa strains. Cell growth was determined visually or using Spark 10M microplate reader (Tecan) after incubation of the micro-titer plates at 37° C. for 16 h.
(§2) For this purpose, induced cells were dispensed into 96-well microplates with LB medium containing two-fold dilutions of an antibiotic of interest and a respective concentration of an inducer.

[2] = tested on: P. aeruginosa PAO1-Pore (GKCW115, FhuAΔC/Δ4L pore); test: MIC, two-fold broth dilution, P. aeruginosa PAO1-Pore; conditions: P. aeruginosa PAO1-Pore; 0.1 mM IPTG; LB, 37° C., 16 h
Description: as §1, §2

E. coli GD102 (ΔTolC) = conditions: E. coli ΔTolC without pore; 0.1% arabinose; LB, 37° C., 16 h
Description: as §1, §2

[3] = tested on: P. aeruginosa PAO1Δ3 (Δ3); conditions: P. aeruginosa Δ3 without pore; 0.1 mM IPTG; LB, 37° C., 16 h
Description: as §1, §2

[4] = tested on: E. coli ΔTolC-Pore (GKCW103, FhuAΔC/Δ4L pore); conditions: 0.1% arabinose, LB, 37° C., 16 h
Description: as §1, §2

[5] = tested on: E. coli WT-Pore (GKCW101, FhuAΔC/Δ4L pore); conditions: 0.1% arabinose, LB, 37° C., 16 h
Description: as §1, §2

E. coli BW 25113 (WT) = conditions: E. coli WT without pore; 0.1% arabinose; LB, 37° C., 16 h
Description: as §1, §2

P. aeruginosa PAO1 = P. aeruginosa PAO1 without pore; 0.1 mM IPTG; LB, 37° C., 16 h
Description: as §1, §2

[6] = tested on: P. aeruginosa PAO1, PAO1-Pore, Δ3, Δ3-Pore; test: Fold MIC change between P. aeruginosa strains (OM barrier, efflux); type: cell-based, Pseudomonas aeruginosa; conditions: P. aeruginosa
[7] = tested on: E. coli WT, WT-Pore, ΔTolC, ΔTolC-Pore; type: cell-based, Escherichia coli; conditions: E. coli

Compound	MIC Δ3 Pore [1]	MIC PAO1 Pore [2]	MIC GD102 (ΔTolC) — (E. coli GD102 (ΔTolC))	MIC Δ3 — [3]	MIC GD102 (ΔTolC) Pore [4]	MIC BW 25113 (WT) Pore [5]	MIC BW 25113 (WT) — (E. coli BW 25113 (WT))	MIC PAO1 — (P. aeruginosa PAO1)	Fold MIC change, Efflux, PAO1-Pore/Δ3-Pore [6]	Fold MIC change, Efflux, PAO1/Δ3 [6]	Fold MIC change, OM barrier, PAO1/PAO1-Pore [6]	Fold MIC change, OM barrier, Δ3/Δ3-Pore [6]	Fold MIC change, Efflux, WT-Pore/ΔTolC-Pore [7]	Fold MIC change, Efflux, WT/ΔTolC [7]	Fold MIC change, OM barrier, WT/WT-Pore [7]	Fold MIC change, OM barrier, ΔTolC/ΔTolC-Pore [7]
Triclosan	8 µg/mL	>1024 µg/mL	0.004 µg/mL	32 µg/mL	0.002 µg/mL	0.031 µg/mL	0.031 µg/mL	>1024 µg/mL	–	–	–	–	–	–	–	–
CCCCCCCCCCCCOS(=O)(=O)[O-].[Na+] [SDS]	156.3 µg/mL	10000 µg/mL	5 µg/mL	10000 µg/mL	5 µg/mL	10000 µg/mL	10000 µg/mL	>10000 µg/mL	64 fold	≧2 fold	≧2 fold	64 fold	2000 fold	2000 fold	1 fold	1 fold
Tobramycin	0.5 µg/mL	1 µg/mL	–	0.5 µg/mL	–	–	–	2 µg/mL	2 fold	4 fold	2 fold	1 fold	–	–	–	–
Virginiamycin	–	–	8 µg/mL	–	0.5 µg/mL	256 µg/mL	>256 µg/mL	–	–	–	–	–	512 fold	≧64 fold	≧2 fold	16 fold

— US20160280743A1, “BACTERIAL MUTANTS AND METHODS OF USE” (priority 2015, published 2016)
